# Target: T1, Met kinase domain (GST fusion protein) (Homo sapiens, UniProt P08581)
# T1 construct: Purified GST fusion protein containing the Met kinase domain
# Assay: Met transphosphorylation assay (ELISA, poly(glu-tyr) substrate);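 also: Cell-free ELISA with plate-bound poly(Glu:Tyr 4:1) phosphorylated by GST-fused Met kinase domain plus ATP and Mn2+, phosphotyrosine detected by anti-phosphotyrosine antibody with HRP and ABTS read-out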
# Format: biochemical
# Details: Met IC50
# Experimental: General procedure is as follows: a compound is introduced to cells expressing the test kinase, either naturally or recombinantly, for a selected period of time after which, if the test kinase is a receptor, a ligand known to activate the receptor is added. The cells are lysed and the lysate is transferred to the wells of an ELISA plate previously coated with a specific antibody recognizing the substrate of the enzymatic phosphorylation reaction. Non-substrate components of the cell lysate are washed away and the amount of phosphorylation on the substrate is detected with an antibody specifically recognizing phosphotyrosine compared with control cells that were not contacted with a test compound.
# Met Transphosphorylation Assay
# This assay is used to measure phosphotyrosine levels on a poly(glutamic acid:tyrosine, 4:1) substrate as a means for identifying agonists/antagonists of met transphosphorylation of the substrate.
# PBS, Gibco Catalog # 450-1300EB • 4. 50 mM HEPES • 5. […] Purified GST fusion protein containing the Met kinase domain, SUGEN, Inc. • 7. TBST Buffer. • 8. 10% aqueous (MilliQue H2O) DMSO. • 9. […] 2× Kinase Dilution Buffer: for 100 mL, mix 10 mL 1M HEPESat pH 7.5 with 0.4 mL 5% BSA/PBS, 0.2 mL 0.1 M sodium orthovanadate and 1 mL 5M sodium chloride in 88.4 mL dH2O. • 11. 4× ATP Reaction Mixture: for 10 mL, mix 0.4 mL 1 M manganese chloride and 0.02 mL 0.1 M ATP in 9.56 mL dH2O. • 12. 4× Negative Controls Mixture: for 10 mL, mix 0.4 mL 1 M manganese chloride in 9.6 mL dH2O. • 13. […] 500 mM EDTA. • 15. Antibody Dilution Buffer: for 100 mL, mix 10 mL 5% BSA/PBS, 0.5 mL 5% Carnation® Instant Milk in PBS and 0.1 mL 0.1 M sodium orthovanadate in 88.4 mL TBST. • 16. Rabbit polyclonal antophosphotyrosine antibody, SUGEN, Inc. • 17. Goat anti-rabbit horseradish peroxidase conjugated antibody, Biosource, Inc. • 18. ABTS Solution: for 1 L, mix 19.21 g citric acid, 35.49 g Na2HPO4 and 500 mg ABTS with sufficient dH2O to make 1 L. • 19. ABTS/H2O2: mix 15 mL ABST solution with 2μL H2O2 five minutes before use. • 20. 0.2 M HCl Procedure: • 1. Coat ELISA plates with 2 μg Poly(Glu-Tyr) in 100 μL PBS, hold-overnight at 4° C. • 2. Block plate with 150 μL of 5% BSA/PBS for 60 min. • 3. Wash plate twice with PBS then once with 50 mM Hepes buffer pH 7.4. • 4. Add 50 μl of the diluted kinase to all wells. (Purified kinase is diluted with Kinase Dilution Buffer. Final concentration should be 10 ng/well.) • 5. Add 25 μL of the test compound (in 4% DMSO) or DMSO alone (4% in dH2O) for controls to plate. • 6. Incubate the kinase/compound mixture for 15 minutes. • 7. Add 25 μL of 40 mM MnCl2 to the negative control wells. • 8. Add 25 μL ATP/MnCl2 mixture to the all other wells (except the negative controls). Incubate for 5 min. • 9. Add 25 μL 500 mM EDTA to stop reaction. • 10. Wash plate 3× with TBST. • 11. Add 100 μL rabbit polyclonal anti-Ptyr diluted 1:10,000 in Antibody Dilution Buffer to each well. Incubate, with shaking, at room temperature for one hour. • 12. Wash plate 3× with TBST. • 13. […] Add 100 μL per well and incubate at room temperature, with shaking, for one hour. • 14. Wash plate 1× with PBS. • 15. Add 100 μl of ABTS/H2O2 solution to each well. • 16. If necessary, stop the development reaction with the addition of 100 μl of 0.2M HCl per well. • 17.
# T1 sequence (P08581 1078-1345 limits assumed): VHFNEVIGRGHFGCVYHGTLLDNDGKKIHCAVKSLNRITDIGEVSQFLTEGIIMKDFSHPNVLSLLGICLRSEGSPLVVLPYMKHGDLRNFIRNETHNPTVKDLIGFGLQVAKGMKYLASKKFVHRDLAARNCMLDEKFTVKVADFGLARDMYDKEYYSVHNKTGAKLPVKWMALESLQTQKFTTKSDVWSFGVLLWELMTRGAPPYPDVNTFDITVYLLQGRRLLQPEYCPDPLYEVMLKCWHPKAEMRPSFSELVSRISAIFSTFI
row,SMILES,IC50 [µM]
1,"N#Cc1ccccc1COc1cc(-c2ccccc2)cnc1N [Example I-97, 2-(2-Amino-5-phenyl-pyridin-3-yloxymethyl)-benzonitrile]",12.2

# Same assay, conditions: read-out: Met IC50
row,SMILES,IC50 [µM]
1,"Nc1ncc(-c2ccc3[nH]c(C(=O)NCC(O)CN4CCCC4)cc3c2)cc1OCc1c(Cl)cccc1Cl (stereo not drawn) [Example I-85, 5-[6-Amino-5-(2,6-dichloro-benzyloxy)-pyridin-3-yl]-1H-indole-2-carboxylic acid (2-hydroxy-3-pyrrolidin-1-yl-propyl)-amide]",0.7
2,"Nc1ncc(-c2ccc(O)cc2)cc1OCc1ccccc1 [Example I-86, 4-(6-Amino-5-benzyloxy-pyridin-3-yl)-phenol]",8.7
3,"Nc1ncc(-c2ccccc2)cc1OCc1ccc(F)cc1Cl [Example I-89, 3-(2-Chloro-4-fluoro-benzyloxy)-5-phenyl-pyridin-2-ylamine]",17
4,"Nc1ncc(-c2ccccc2)cc1OCc1cc(C(F)(F)F)ccc1Cl [Example I-92, 3-(2-Chloro-5-trifluoromethyl-benzyloxy)-5-phenyl-pyridin-2-ylamine]",> 20
5,"Nc1ncc(-c2ccccc2)cc1OCc1cc(F)c(Cl)cc1Cl [Example I-93, 3-(2,4-Dichloro-5-fluoro-benzyloxy)-5-phenyl-pyridin-2-ylamine]",> 20
6,"Nc1ncc(-c2ccccc2)cc1OCc1cccc(C(F)(F)F)c1Cl [Example I-94, 3-(2-Chloro-3-trifluoromethyl-benzyloxy)-5-phenyl-pyridin-2-ylamine]",> 20
7,"Nc1ncc(-c2ccccc2)cc1OCc1c(F)ccc(F)c1Cl [Example I-95, 3-(2 Chloro-3,6-difluoro-benzyloxy)-5-phenyl-pyridin-2-ylamine]",0.64
8,"Nc1ncc(-c2ccccc2)cc1OCc1ccc(Cl)c(Cl)c1 [Example I-96, 3-(3,4-Dichloro-benzyloxy)-5-phenyl-pyridin-2-ylamine]",16.2
9,"Cc1ccc(F)c(COc2cc(-c3ccccc3)cnc2N)c1Cl [Example I-98, 3-(2-Chloro-6-fluoro-3-methyl-benzyloxy)-5-phenyl-pyridin-2-ylamine]",7.6
10,"Nc1ncc(-c2ccccc2)cc1OCc1c(F)ccc(F)c1F [Example I-99, 5-Phenyl-3-(2,3,6-trifluoro-benzyloxy)-pyridin-2-ylamine]",3.9
11,"Nc1ncc(-c2ccccc2)cc1OCc1c(F)cccc1F [Example I-100, 3-(2,6-Difluoro-benzyloxy)-5-phenyl-pyridin-2-ylamine]",9.3
12,"Cc1ccc(F)c(COc2cc(-c3ccccc3)cnc2N)c1F [Example I-101, 3-(2,6-Difluoro-3-methyl-benzyloxy)-5-phenyl-pyridin-2-ylamine]",12
13,"Nc1ncc(-c2ccccc2)cc1OCc1c(F)ccc(Cl)c1F [Example I-102, 3-(3-Chloro-2,6-difluoro-benzyloxy)-5-phenyl-pyridin-2-ylamine]",9.6
14,"Nc1ncc(-c2ccccc2)cc1OCc1c(F)cccc1Cl [Example I-103, 3-(2-Chloro-8-fluoro-benzyloxy)-5-phenyl-pyridin-2-ylamine]",7.91
15,"COc1ccc(COc2cc(-c3ccccc3)cnc2N)cc1F [Example I-104, 3-(3-Fluoro-4-methoxy-benzyloxy)-5-phenyl-pyridin-2-ylamine]",15
16,"CS(=O)(=O)Nc1cccc(COc2cc(-c3ccccc3)cnc2N)c1 [Example I-105, N-[3-(2-Amino-5-phenyl-pyridin-3-yloxymethyl)-phenyl]-methanesulfonamide]",> 20
17,"Nc1ncc(-c2ccc(OCCN3CCOCC3)cc2)cc1OCc1cccc([N+](=O)[O-])c1 [Example I-106, 5-[4-(2-morpholin-4-yl-ethoxy)-phenyl]-3-(3-nitro-benzyloxy)-pyridin-2-ylamine]",12.6
18,"Nc1ncc(-c2ccc(OCCN3CCOCC3)cc2)cc1OCc1cccc2ccccc12 [Example I-107, 5-[4-(2-Morpholin-4-yl-ethoxy)-phenyl]-3-(naphthalen-1-ylmethoxy)-pyridin-2-ylamine]",7.7
19,"Nc1ncc(-c2ccc(OCCN3CCOCC3)cc2)cc1OCc1c(F)ccc(F)c1Cl [Example I-108, 3-(2-Chloro-3,6-difluoro-benzyloxy)-5-[4-(2-morpholin-4-yl-ethoxy)-phenyl]-pyridin-2-ylamine]",0.21
20,"CC(C)c1ccc(NC(=O)C(Oc2cc(-c3ccc(OCCN4CCOCC4)cc3)cnc2N)c2ccccc2)cc1 (stereo not drawn) [Example I-109, 2-{2-Amino-5-[4-(2-morpholin-4-yl-ethoxy)-phenyl]-pyridin-3-yloxy}-N-(4-isopropyl-phenyl)-2-phenyl-acetamide]",> 20
21,"Nc1ncc(-c2ccc(OCCN3CCOCC3)cc2)cc1OCc1csc2ccc(Cl)cc12 [Example I-110, 3-(5-Chloro-benzo[b]thiophen-3-ylmethoxy)-5-[4-(2-morpholin-4-yl-ethoxy)-phenyl]-pyridin-2-ylamine]",2.4
22,"Nc1ncc(-c2ccc(C(=O)N3CCC[C@@H]3CN3CCCC3)cc2)cc1OCc1ccc(F)cc1C(F)(F)F [Example I-111, {4-[6-amino-5-(4-fluoro-2-trifluoromethyl-benzyloxy)-pyridin-3-yl]-phenyl)[(2R)-2-pyrrolidin-1-ylmethyl-pyrrolidin-1-yl]-methanone]",1.51
23,"Nc1ncc(-c2ccc(C(=O)N3CCC[C@@H]3CN3CCCC3)cc2)cc1OCc1c(F)cccc1C(F)(F)F [Example I-112, {4-[6-Amino-5-(2-fluoro-2-trifluoromethyl-benzyloxy)-pyridin-3-yl]-phenyl}-[(2R)-2-pyrrolidin-1-ylmethyl-pyrrolidin-1-yl]-methanone]",0.15
24,"Nc1ncc(-c2ccc(C(=O)N3CCC[C@@H]3CN3CCCC3)cc2)cc1OCc1cc(F)ccc1C(F)(F)F [Example I-113, {4-(6-Amino-5-(5-fluoro-2-trifluoromethyl-benzyloxy)pyridin-3-yl]-phenyl}-[(2R)-2-pyrrolidin-1-ylmethyl-pyrrolidin-1-yl]-methanone]",1.27
25,"CC(Oc1cc(-c2ccc(C(=O)N3CCC[C@@H]3CN3CCCC3)cc2)cnc1N)c1ccccc1C(F)(F)F (stereo partly drawn) [Example I-114, (4-{6-Amino-5-[1-(2-trifluoromethyl-phenyl)-ethoxy]-pyridin-3-yl}-phenyl)-[(2R)-2-pyrrolidin-1-ylmethyl-pyrrolidin-1-yl]-methanone]",0.33
26,"Nc1ncc(-c2ccc(C(=O)N3CCC[C@@H]3CN3CCCC3)cc2)cc1OCc1ccccc1Br [Example I-115, {4-[6-Amino-5-(2-bromo-benzyloxy)-pyridin-3-yl]-phenyl}-[(2R)-2-pyrrolidin-1-ylmethyl-pyrrolidin-1-yl]-methanone]",1.75
27,"Nc1ncc(-c2ccc(C(=O)N3CCC[C@@H]3CN3CCCC3)cc2)cc1OCc1cccc(F)c1C(F)(F)F [Example I-116, {4-(6-Amino-5-(3-fluoro-2-trifluoromethyl-benzyloxy)-pyridin-3-yl]-phenyl}-[(2R)-2-pyrrolidin-1-ylmethyl-pyrrolidin-1-yl]-methanone]",0.025

# Same assay, conditions: read-out: Met inhibition (printed in the Met IC50 column)
row,SMILES,inhibition at 20 µM [%]
1,"Nc1ncc(-c2ccccc2)cc1OCc1ccccc1Cl [Example I-90, 3-(2-Chloro-benzyloxy)-5-phenyl-pyridin-2-ylamine]",48
2,"Nc1ncc(-c2ccccc2)cc1OCc1cc(Cl)ccc1Cl [Example I-91, 3-(2,5-Dichloro-benzyloxy)-5-phenyl-pyridin-2-ylamine]",48
